Consider 5 compounds from paper PMC6222832, “Kinetic Characterization of Novel HIV-1 Entry Inhibitors: Discovery of a Relationship between Off-Rate and Potency” (Molecules : A Journal of Synthetic Chemistry and Natural …, 2018).

The IC50 is the concentration that gives 50% inhibition.

SMILES strings stand for the structures.

One data set deals with HIV-1 B41 Env pseudotyped HIV-1. Description: microbe, parasite or virus in culture. It is filed as cell-based. Conditions: Human immunodeficiency virus 1, U87/CD4/CCR5, 48 h, read-out: IC50 B41.
As for `COc1cnc(-n2cnc(C)n2)c2[nH]cc(C(=O)C(=O)N3CCN(C(=O)c4ccccc4)CC3)c12` [BMS-626529, reference compound], the IC50 came to 0.05 ± 0.006 nM.

As for `COc1cnc(-n2cnc(C)n2)c2[nH]cc(C(=O)C(=O)N3CC4CN(C(=O)c5ccccc5)CC4C3)c12` (centres unmarked) [SC11], the IC50 was found to be 2 ± 0.2 nM.

Take `COc1cnc(-n2cnc(C)n2)c2[nH]cc(C(=O)C(=O)N3CC(CSC(=O)c4ccccc4)C3)c12` [SC16]: the IC50 amounted to 37 ± 5 nM.

Take `COc1cnc(-n2cnc(C)n2)c2[nH]cc(C(=O)C(=O)N(C)C3CN(C(=O)c4ccccc4)C3)c12` [SC18]: the IC50 was found to be 360 ± 12 nM.

For `COc1cnc(-n2cnc(C)n2)c2[nH]cc(C(=O)C(=O)N3CC4C=NN(c5nnnn5-c5ccccc5)C4C3)c12` (centres unmarked) [SC39], the IC50 stood at 5320 ± 260 nM.

Tested on in the next data set: not listed separately
Description: in vitro. Particulars: human.
Consider `COc1cnc(-n2cnc(C)n2)c2[nH]cc(C(=O)C(=O)N3CC4CN(C(=O)c5ccccc5)CC4C3)c12` (centres unmarked) [SC11], for which the CC50 at 48 h was more than 50000 nM.

`COc1cnc(-n2cnc(C)n2)c2[nH]cc(C(=O)C(=O)N3CC(CSC(=O)c4ccccc4)C3)c12` [SC16] returned a CC50 at 48 h of more than 50000 nM.

In turn, `COc1cnc(-n2cnc(C)n2)c2[nH]cc(C(=O)C(=O)N(C)C3CN(C(=O)c4ccccc4)C3)c12` [SC18] returned a CC50 at 48 h of more than 50000 nM.

As for `COc1cnc(-n2cnc(C)n2)c2[nH]cc(C(=O)C(=O)N3CC4C=NN(c5nnnn5-c5ccccc5)C4C3)c12` (centres unmarked) [SC39], the CC50 at 48 h is more than 50000 nM.

The target of another data set is HIV-1 B41 SOSIP.664 gp140 trimer (Human immunodeficiency virus type 1, UniProt B3UES2, A505C/E513R/I563P/INS515RR/K514R/T609C).
Assay: not given
It is filed as binding.
Details: not given
Take `COc1cnc(-n2cnc(C)n2)c2[nH]cc(C(=O)C(=O)N3CCN(C(=O)c4ccccc4)CC3)c12` [BMS-626529, reference compound]: the ka is 38900 M⁻¹ s⁻¹ and the kd came out at 0.00059 s⁻¹.

The next data set has as its system HIV-1 JR-CSF Env pseudotyped HIV-1. Description: microbe, parasite or virus in culture. Particulars: Human immunodeficiency virus 1, U87/CD4/CCR5, 48 h, read-out: IC50 JR-CSF. The format is cell-based.
In the case of `COc1cnc(-n2cnc(C)n2)c2[nH]cc(C(=O)C(=O)N3CCN(C(=O)c4ccccc4)CC3)c12` [BMS-626529, reference compound], the half-inhibitory concentration (IC50) is 0.06 ± 0.005 nM.

As for `COc1cnc(-n2cnc(C)n2)c2[nH]cc(C(=O)C(=O)N3CC4CN(C(=O)c5ccccc5)CC4C3)c12` (centres unmarked) [SC11], the IC50 worked out at 0.6 ± 0.1 nM.

`COc1cnc(-n2cnc(C)n2)c2[nH]cc(C(=O)C(=O)N3CC(CSC(=O)c4ccccc4)C3)c12` [SC16]: the IC50 worked out at 29 ± 8 nM.

As for `COc1cnc(-n2cnc(C)n2)c2[nH]cc(C(=O)C(=O)N(C)C3CN(C(=O)c4ccccc4)C3)c12` [SC18], the IC50 turned out to be 132 ± 4 nM.

In the case of `COc1cnc(-n2cnc(C)n2)c2[nH]cc(C(=O)C(=O)N3CC4C=NN(c5nnnn5-c5ccccc5)C4C3)c12` (centres unmarked) [SC39], the IC50 was determined as 143 ± 52 nM.

In a further data set the target is B41 SOSIP.664 gp140 trimer (Human immunodeficiency virus type 1, UniProt B3UES2, A505C/E513R/I563P/INS515RR/K514R/T609C).
Assay: not given
It is filed as binding, HIV-1.
Details: not given
Regarding `COc1cnc(-n2cnc(C)n2)c2[nH]cc(C(=O)C(=O)N3CC4CN(C(=O)c5ccccc5)CC4C3)c12` (centres unmarked) [SC11], the ka worked out at 4330 M⁻¹ s⁻¹ and the kd stood at 0.000287 s⁻¹.

`COc1cnc(-n2cnc(C)n2)c2[nH]cc(C(=O)C(=O)N3CC(CSC(=O)c4ccccc4)C3)c12` [SC16] gave a ka of 86200 M⁻¹ s⁻¹ and a kd of 0.00598 s⁻¹.

Consider `COc1cnc(-n2cnc(C)n2)c2[nH]cc(C(=O)C(=O)N(C)C3CN(C(=O)c4ccccc4)C3)c12` [SC18], for which the ka is 15900 M⁻¹ s⁻¹ and the kd worked out at 0.0248 s⁻¹.

Compound `COc1cnc(-n2cnc(C)n2)c2[nH]cc(C(=O)C(=O)N3CC4C=NN(c5nnnn5-c5ccccc5)C4C3)c12` (centres unmarked) [SC39] showed a ka of 1390 M⁻¹ s⁻¹ and a kd of 0.0381 s⁻¹.

The subject of the next data set is HIV-1B41 and HIV-1JR-CSF Env pseudotyped virions. Description: microbe, parasite or virus in culture. Particulars: Human immunodeficiency virus 1, read-out: Median IC50. The format is cell-based.
In the case of `COc1cnc(-n2cnc(C)n2)c2[nH]cc(C(=O)C(=O)N3CCN(C(=O)c4ccccc4)CC3)c12` [BMS-626529, reference compound], the IC50 came out at 0.055 nM.

For `COc1cnc(-n2cnc(C)n2)c2[nH]cc(C(=O)C(=O)N3CC4CN(C(=O)c5ccccc5)CC4C3)c12` (centres unmarked) [SC11], the IC50 is approximately 2 nM.

As to `COc1cnc(-n2cnc(C)n2)c2[nH]cc(C(=O)C(=O)N3CC(CSC(=O)c4ccccc4)C3)c12` [SC16], the IC50 is 33 nM.

For `COc1cnc(-n2cnc(C)n2)c2[nH]cc(C(=O)C(=O)N(C)C3CN(C(=O)c4ccccc4)C3)c12` [SC18], the concentration for half-maximal inhibition (IC50) stood at 246 nM.

In the case of `COc1cnc(-n2cnc(C)n2)c2[nH]cc(C(=O)C(=O)N3CC4C=NN(c5nnnn5-c5ccccc5)C4C3)c12` (centres unmarked) [SC39], the IC50 was determined as 2730 nM.
